# Several values for one entry are separate records, joined by “and”; a condition that tells them apart may be missing. Equal values may be shown once.
# Assays:
# Assay type in all cases: cell-based
# [1] = tested on: Escherichia coli (10536 strain); experiment: Example 1: 15 second contact-time bacterial kill assay (microtitre plate, D/E quench, TSA plate count); MBC and FBC analysis; conditions: lowest concentration of the single active giving zero bacterial survival after 15 seconds; upper boundary
# Description: The efficacies of antimicrobial agents can be usefully compared by determining the Minimum Biocidal Concentration (MBC). The MBC is defined as the lowest absolute concentration of the particular active that provides complete kill (zero bacterial growth).
# 1 ml of this overnight E. coli culture was transferred to 50 ml of fresh TSB broth and incubated at 37° C. at 150 rpm for ca. 4 hours. This culture was separated into equal volumes and centrifuged at 4000 rpm for 15 minutes, washed with sterile saline (0.85% NaCl), centrifuged once more and re-suspended in saline to give a final concentration of 0.8 OD620 equivalent to about 10^8 cells per millilitre for this particular organism. Here, OD620 indicates the absorbance of a sample in a cuvette of 1.0 cm path length at a wavelength of 620 nm. This bacterial stock was used for assaying against antimicrobial actives (in triplicate).
# The following assay describes the testing of 8 materials using 6 dilutions across half of a 96-well micro titre plate (MTP). Using this approach it is possible to assay 16 actives (without replicates) with one full dilution plate, replicating this set up in two halves of the plate columns, 1-6 and 7-12.
# This MTP was labelled as the “Screening plate”.
# In another MTP, labelled as the “Dilution plate”, 270 μl of D/E neutralising solution from DIFCO Composition was added to column 1. The composition of the neutralising solution was as follows: pancreatic digest of casein, 5.0 g/L; Yeast Extract, 2.5 g/L; Dextrose, 10 g/L, sodium thioglycollate, 1.0 g/L, sodium thiosulphate, 6.0 g/L; sodium bisulphite, 2.5 g/L; Polysorbate 80, 5.0 g/L; lecithin 7.0 g/L; bromocresol purple, 0.02 g/L with a pH in the range 7.6±0.2.
# 270 μl of tryptone diluent solution was added to all the remaining wells of the Dilution MTP (columns 2-6).
# After exactly 5 minutes in the D/E neutralising solution, 30 μl volumes were transferred from column 1 to column 2 of the Dilution MTP and mixed, before transferring further 30 μl volumes from column 2 into column 3. […]
# [2] = tested on: Escherichia coli (E. coli ATCC #10536); experiment: Example 2: high resolution MBC synergy assay in phosphate buffer containing 35% dipropylene glycol, 15 seconds; conditions: for ΣFBC: calculated for the Ca/Cb pair, 1.00 for a component alone; for MBC of component alone (MBCA thymol, MBCB acyclic terpene alcohol): complete kill in 15 seconds, phosphate buffer with 35% DPG, about 1×10^8 bacteria per mL
# Description: In this Example, a wide range of combinations of chemicals was tested by conducting high resolution MBC assays of selected acyclic terpene alcohols in the presence of various concentrations of thymol. The materials were sourced in the same way as for Example 1. Synergy tests were conducted using standard microtiter plate assays with phosphate buffer containing 35% dipropylene glycol (DPG). […] The MBC plate was inoculated one column at a time with the test microorganism. An aliquot of the inoculated well was transferred at 15 seconds to a plate containing a neutralizing agent (DIE Neutralizing Broth), mixed and held for 5 minutes before being transferred to a growth plate containing trypticase soy broth (TSB). The TSB plate was incubated at 37° C. and read for the presence/absence of growth at 24 hours. […] This microorganism is representative of natural contaminants in many consumer and industrial applications. […] The tables show the specific combinations of two components: results against the microorganism tested: the end-point activity in weight % measured by the MBC for the first component alone (thymol, MBCA), for the second component alone (acyclic terpene alcohol, MBCB), for the first component in the mixture (Ca) and for the second component in the mixture (Cb); the calculated ΣFBC value; and the range of synergistic ratios for each combination tested (first component t second component or A/B) against the particular microorganism.
# [3] = tested on: Escherichia coli (E. coli—ATCC #10536); experiment: Example 3: automated assessment of efficacy in surfactant base (2.85% sodium cocoyl glycinate + 1.85% sodium lauroamphoacetate, pH 10), 15 seconds exposure, DeltaOD read-out; conditions: for MBC: in 2.85% sodium cocoyl glycinate + 1.85% sodium lauroamphoacetate solution at pH 10, 15 seconds; for 15 second bactericidal efficacy in combination with thymol (in words): in combination with thymol at concentrations lower than their MBC in the same surfactant formulation
# Description: In these examples, the efficacy of combinations of thymol and acyclic terpene alcohols were tested in a surfactant cleansing formulation comprising 2.85% sodium cocoyl glycinate and 1.85% sodium lauroamphoacetate. […] Solutions were prepared such that the concentrations of the surfactant components and test actives were 1.1 times the final desired concentration in order to allow for dilution with the bacterial inoculum in the test. […] Solutions of the thymol and/or acyclic terpene alcohols were prepared at a maximum of 24 hours before testing. […] Tests were conducted using standard microtiter plate assays using an automated liquid handling system. 270 μl of the surfactant test solution was pipetted into each well of the microtitre plate (Nunc F Gamma irradiated 96F untreated microtitre plates of clear polystyrene) and 30 μl of the bacterial suspension was then added. After exactly 15 seconds of bacterial exposure, a 30 μl volume of bacterial cells was withdrawn and transferred to 270 μl of D/E quench solution. […] These provide a dual check of antimicrobial activity, as the OD450 reading is specific for the yellow colour of DIE quench when bacterial growth is observed, whereas OD590 is specific for the initial purple colour of the D/E quench which is retained if no bacterial growth is observed. […] Bacterial growth is observed as an increase in OD450 and a decrease in OD590. […] Four replicate measurements in the same plate have been made for each test system. The number of replicate wells showing either bacterial growth or no growth is also readily assessed by eye by following the colour change. Thymol and terpineol were tested both alone and in combination for comparison purposes.
SMILES,MBC (minimum biocidal concentration) [1] [% w/v],ΣFBC [2],"MBC of component alone (MBCA thymol, MBCB acyclic terpene alcohol) [2]",MBC [3],15 second bactericidal efficacy in combination with thymol (in words) [3]
"CC1=CCC(C(C)(C)O)CC1 (stereo not drawn) [alpha-terpineol, reference compound]",0.4,,,,
"CC(C)=CCC/C(C)=C\CO [nerol, (Z)-3,7-dimethylocta-2,6-dien-1-ol]",,1.00,0.5 weight %,,
"Cc1ccc(C(C)C)c(O)c1 [thymol, 2-isopropyl-5-methylphenol]",,1.00,0.5 weight % and 0.4 weight %,0.2 % w/v,
"C=C[C@@](C)(O)CCC=C(C)C [(−)-linalool, (S)-3,7-dimethylocta-1,6-dien-3-ol]",0.4,,,,
"C=CC(C)(O)CCC=C(C)C (racemic) [(+/−)-linalool, 3,7-dimethylocta-1,6-dien-3-ol]",0.4,1.00,0.5 weight %,>0.5 % w/v,complete kill
"CC(C)=CCC/C(C)=C/CO [geraniol, (E)-3,7-dimethylocta-2,6-dien-1-ol]",,1.00,0.3 weight %,>0.5 % w/v and 0.5 % w/v,complete kill

# — patent US9247737B2, “Method for disinfecting a surface” (Rohm and Haas Company, priority 2011, dated 2016)
